In ChEMBL document CHEMBL1201862, “PubChem BioAssay data set” (2004):
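Test compounds were applied to cells in 96-well plates for 48 hours at 5 doses. GI50 is the concentration that inhibits growth by half.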 Calls of active or inactive are those of the source. No stated cut-off is given here; in the data, active = GI50 up to about 1.1 µM and inactive = higher.

What was measured:
Assay in all cases: DTP human tumour cell line panel, 48 h
[1] = system: 786-0
[2] = system: CCRF-CEM
[3] = system: DMS-273
[4] = system: EKVX
[5] = system: HCT-116
[6] = system: HOP-92
[7] = system: IGROV-1
[8] = system: M14
[9] = system: NCI-H522
[10] = system: OVCAR-3
[11] = system: SF-295
[12] = system: SK-MEL-2
[13] = system: SK-MEL-5
[14] = system: SN12C
[15] = system: SNB-75
[16] = system: SW-620
[17] = system: TK-10
[18] = system: MCF7

SMILES	GI50 [1]	GI50 [2]	GI50 [3]	GI50 [4]	GI50 [5]	GI50 [6]	GI50 [7]	GI50 [8]	GI50 [9]	GI50 [10]	GI50 [11]	GI50 [12]	GI50 [13]	GI50 [14]	GI50 [15]	GI50 [16]	GI50 [17]	GI50 [18]
C1CCC(N=C2N(C3CCCCC3)C(=NC3CCCCC3)N2C2CCCCC2)CC1	> 100 µM (inactive)	> 100 µM (inactive)	> 100 µM (inactive)	> 100 µM (inactive)	> 100 µM (inactive)	30.3 µM (inactive)	> 100 µM (inactive)	> 100 µM (inactive)	> 100 µM (inactive)	> 100 µM (inactive)	> 100 µM (inactive)	> 100 µM (inactive)	> 100 µM (inactive)	> 100 µM (inactive)	20.9 µM (inactive)	> 100 µM (inactive)	> 100 µM (inactive)	–
CCCCCCCCCCC(O)[C@H]1CCC(C2CC[C@H]([C@H](O)CCCCCCCCCCC(O)CC3=CC(C)OC3=O)O2)O1 (stereo not given in full)	3.51 µM (inactive)	1.94 µM (inactive)	1.6 µM (inactive)	1.23 µM (inactive)	1.94 µM (inactive)	2.44 µM (inactive)	1.66 µM (inactive)	1.69 µM (inactive)	1.46 µM (inactive)	1.71 µM (inactive)	0.214 µM (active)	1.53 µM (inactive)	0.565 µM (active)	2.25 µM (inactive)	1.76 µM (inactive)	1.87 µM (inactive)	1.59 µM (inactive)	1.21 µM (inactive)
